Test results as given in patent publication US9586952B2, “Polycyclic estrogen receptor modulators and uses thereof” (SERAGON PHARMACEUTICALS, INC., priority 2013, dated 2017).

Experiments:
[1] = target: T1, ER-α (Homo sapiens, UniProt P03372); experiment: Breast Cancer Cell ER-α In Cell Western Assay (SP1); type: cell-based; details: MCF-7 cells, 4 or 24 hr post compound addition, SP1 antibody; for Emax: MCF7, read-out: ER-α In Cell Western Assay (SP1) Max Response; for DC50: read-out: ER-α In Cell Western Assay (SP1) IC50
T1 construct: endogenous in cells; host or cells: MCF-7
T1 sequence (P03372 1-595): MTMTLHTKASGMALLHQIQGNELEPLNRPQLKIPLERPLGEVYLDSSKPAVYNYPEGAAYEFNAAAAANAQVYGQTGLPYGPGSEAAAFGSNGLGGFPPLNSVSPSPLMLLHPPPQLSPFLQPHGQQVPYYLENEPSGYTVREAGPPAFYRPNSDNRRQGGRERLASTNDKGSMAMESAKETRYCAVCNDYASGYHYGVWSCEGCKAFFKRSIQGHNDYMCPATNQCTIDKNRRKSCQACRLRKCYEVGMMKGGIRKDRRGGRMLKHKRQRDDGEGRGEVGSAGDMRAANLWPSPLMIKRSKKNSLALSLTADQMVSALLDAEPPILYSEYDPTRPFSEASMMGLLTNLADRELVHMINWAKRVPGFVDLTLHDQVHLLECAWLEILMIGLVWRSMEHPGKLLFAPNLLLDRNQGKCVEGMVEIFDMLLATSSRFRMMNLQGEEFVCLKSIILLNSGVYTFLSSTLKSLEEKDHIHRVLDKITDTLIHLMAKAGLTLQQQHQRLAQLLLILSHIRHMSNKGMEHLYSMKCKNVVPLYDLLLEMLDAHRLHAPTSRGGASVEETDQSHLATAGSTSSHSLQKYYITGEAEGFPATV
Experimental: MCF-7 cells were adjusted to a concentration of 200,000 cells per mL in RPMI containing 10% charcoal-stripped FBS and 20 mM HEPES. 16 microliters of the cell suspension (3200 cells) was added to each well of a poly-D-lysine 384 well plate, and the cells were incubated overnight to allow the cells to adhere. The following day an eleven point, serial semilog dilution of each compound was added to the cells in 16 μL at a final concentration ranging from 0.3-0.000003 μM. At 4 or 24 hr post compound addition, the cells were fixed (10% formalin in PBS) for 20 minutes. Cells were permeablized in PBS 0.1% Triton and blocked with LICOR blocking buffer (50 μl/well, 90′). The wells were then incubated overnight at 4° C. with SP1 rabbit monoclonal Ab (Thermo Scientific) diluted 1:1000 in LICOR blocking buffer/0.1% Tween-20. Wells which were treated with blocking buffer with Tween but no antibody were used as a background control. Wells were washed with 0.1% Tween-20/PBS and then incubated in goat anti-rabbit IRDye™ 800 CW (LICOR Inc.; 1:10000) and DRAQ5 DNA dye (1:2000 for 2 mM stock) diluted in LICOR blocking buffer containing 0.1% Tween-20 and 0.01% SDS for 60 minutes. Cells were washed (50 μl/well, 5′ each) in 0.1% Tween-20/PBS. Plates were scanned on a LICOR Odyssey infrared imaging system. Integrated intensities in the 800 nm channel and 700 nm channel were measured to determine levels of ER and DNA respectively. Percent ER levels were determined as follows: (Integrated intensity 800 nm sample/integrated intensity 700 nm sample)/(Integrated intensity 800 nm untreated cells/integrated intensity 700 nm untreated cells)×100=% ER levels.

[2] = tested on: MCF-7 cells; experiment: MCF7 Viability Assay (Breast Cancer Cell Viability Assay); type: cell-based; details: 5 days' compound exposure, CellTiter-Glo; for IC50: Homo sapiens, MCF7, 120 h
Experimental: MCF-7 cells were adjusted to a concentration of 20,000 cells per mL in RPMI containing 10% FBS and 20 mM HEPES. 16 microliters of the cell suspension (320 cells) was added to each well of a 384 well plate, and the cells were incubated overnight to allow the cells to adhere. The following day an eleven point, serial semilog dilution of each compound was added to the cells in 16 μL at a final concentration ranging from 0.3-0.000003 μM. After 5 days' compound exposure, 16 μL of CellTiter-GLo (Promega, Madison Wis.) was added to the cells, and the relative luminescence units (RLUs) of each well were determined. CellTiter-Glo added to 32 μL of medium without cells was used to obtain a background value. The Percent viability of each sample was determined as follows: (RLU sample-RLU background/RLU untreated cells-RLU background)×100=% viability.

Compound	Emax [1]	DC50 [1]	IC50 [2]	MCF7 Viability Assay Max Response [2]
CC/C(=C(/c1ccc(/C=C/C(=O)O)cc1)c1ccc(N2CCN(C)CC2)cc1)c1ccccc1 [Example 23, (E)-3-(4-((E)-1-(4-(4-Methylpiperazin-1-yl)phenyl)-2-phenylbut-1-en-1-yl)phenyl)acrylic acid]	≥ 40%	≤ 100 nM	> 100 nM	++ (++ = a single % value ≧ 40%)
CC/C(=C(/c1ccc(/C=C/C(=O)O)cc1)c1ccc(-c2cccnc2)cc1)c1ccccc1 [Example 14, (E)-3-(4-((E)-2-Phenyl-1-(4-(pyridin-3-yl)phenyl)but-1-en-1-yl)phenyl)acrylic acid]	≥ 40%	≤ 100 nM	> 100 nM	++ (++ = a single % value ≧ 40%)
O=C(O)/C=C/c1ccc(/C(=C(\c2ccccc2)C2CCC2)c2ccc(-c3cncs3)cc2)cc1 [Example 13, (E)-3-(4-((E)-2-Cyclobutyl-2-phenyl-1-(4-(thiazol-5-yl)phenyl)vinyl)phenyl)acrylic acid]	≥ 40%	≤ 100 nM	≤ 100 nM	++ (++ = a single % value ≧ 40%)
O=C(O)/C=C/c1ccc(/C(=C(\c2ccccc2)C2CCC2)c2ccc(-c3cncs3)cn2)cc1 [Example 25, (E)-3-(4-((E)-2-Cyclobutyl-2-phenyl-1-(5-(thiazol-5-yl)pyridin-2-yl)vinyl)phenyl)acrylic acid]	≥ 40%	> 100 nM	> 100 nM	++ (++ = a single % value ≧ 40%)
CC/C(=C(/c1ccc(/C=C/C(=O)O)cc1)c1ccc(N2CCCCC2)cc1)c1ccccc1 [Example 24, (E)-3-(4-((E)-2-Phenyl-1-(4-(piperidin-1-yl)phenyl)but-1-en-1-yl)phenyl)acrylic acid]	≥ 40%	> 100 nM	> 100 nM	++ (++ = a single % value ≧ 40%)
O=C(O)/C=C/c1ccc(/C(=C(\c2ccc(F)cc2Cl)C2CCC2)c2ccc(-c3cn[nH]c3)cc2)cc1 [Example 37, (E)-3-(4-((E)-1-(4-(1H-Pyrazol-4-yl)phenyl)-2-(2-chloro-4-fluorophenyl)-2-cyclobutylvinyl)phenyl)acrylic acid]	≥ 40%	≤ 100 nM	≤ 100 nM	++ (++ = a single % value ≧ 40%)
COc1cc(C)c(/C(=C(\c2ccc(/C=C/C(=O)O)cc2)c2ccc(N3CCOCC3)cc2)C2CCC2)cn1 [Example 39, (E)-3-(4-((E)-2-Cyclobutyl-2-(6-methoxy-4-methylpyridin-3-yl)-1-(4-morpholinophenyl)vinyl)phenyl)acrylic acid]	≥ 40%	≤ 100 nM	≤ 100 nM	++ (++ = a single % value ≧ 40%)
CC/C(=C(/c1ccc(/C=C/C(=O)O)cc1)c1ccc(-c2cncs2)cc1)c1ccccc1 [Example 9, (E)-3-(4-((E)-2-Phenyl-1-(4-(thiazol-5-yl)phenyl)but-1-en-1-yl)phenyl)acrylic acid]	≥ 40%	≤ 100 nM	≤ 100 nM	++ (++ = a single % value ≧ 40%)
Cc1cccnc1/C(=C(\c1ccc(/C=C/C(=O)O)cc1)c1ccc(-c2cn[nH]c2)cc1)C1CCC1 [Example 40, (E)-3-(4-((E)-1-(4-(1H-Pyrazol-4-yl)phenyl)-2-cyclobutyl-2-(3-methylpyridin-2-yl)vinyl)phenyl)acrylic acid]	≥ 40%	≤ 100 nM	> 100 nM	++ (++ = a single % value ≧ 40%)
O=C(O)/C=C/c1ccc(/C(=C(\c2ccccc2)C2CCC2)c2ccc(-c3cn[nH]c3)cc2)cc1 [Example 1, (E)-3-(4-((E)-1-(4-(1H-Pyrazol-4-yl)phenyl)-2-cyclobutyl-2-phenylvinyl)phenyl)acrylic acid]	≥ 40%	≤ 100 nM	≤ 100 nM	++ (++ = a single % value ≧ 40%)

More lines, main results first:

Emax [1]	DC50 [1]	IC50 [2]	Compound	MCF7 Viability Assay Max Response [2]
≥ 40%	≤ 100 nM	≤ 100 nM	O=C(O)/C=C/c1ccc(/C(=C(\c2ncccc2Cl)C2CCC2)c2ccc(N3CCOCC3)cc2)cc1 [Example 43, (E)-3-(4-((E)-2-(3-Chloropyridin-2-yl)-2-cyclobutyl-1-(4-morpholinophenyl)vinyl)phenyl)acrylic acid]	++ (++ = a single % value ≧ 40%)
≥ 40%	≤ 100 nM	≤ 100 nM	O=C(O)/C=C/c1ccc(/C(=C(\c2ncccc2Cl)C2CCC2)c2ccc(-c3cn[nH]c3)cc2)cc1 [Example 42, (E)-3-(4-((E)-1-(4-(1H-Pyrazol-4-yl)phenyl)-2-(3-chloropyridin-2-yl)-2-cyclobutylvinyl)phenyl)acrylic acid]	++ (++ = a single % value ≧ 40%)
≥ 40%	≤ 100 nM	≤ 100 nM	c1ccc(/C(=C(\c2ccc(OCCN3CCCC3)cc2)c2ccc(-c3cn[nH]c3)cc2)C2CCC2)cc1 [Example 63, (Z)-4-(4-(2-cyclobutyl-2-phenyl-1-(4-(2-(pyrrolidin-1-yl)ethoxy)phenyl)vinyl)phenyl)-1H-pyrazole]	++ (++ = a single % value ≧ 40%)
≥ 40%	≤ 100 nM	≤ 100 nM	O=C(O)/C=C/c1ccc(/C(=C(\c2ccc(OC(F)(F)F)cc2Cl)C2CCC2)c2ccc(-c3cn[nH]c3)cc2)cc1 [Example 52, (E)-3-(4-((E)-1-(4-(1H-Pyrazol-4-yl)phenyl)-2-(2-chloro-4-(trifluoromethoxy)phenyl)-2-cyclobutylvinyl)phenyl)acrylic acid]	++ (++ = a single % value ≧ 40%)
≥ 40%	≤ 100 nM	≤ 100 nM	O=C(O)/C=C/c1ccc(/C(=C(\c2ccc(F)cc2Cl)C2CCC2)c2ccc(-c3ccncc3)cc2)cc1 [Example 56, (E)-3-(4-((E)-2-(2-Chloro-4-fluorophenyl)-2-cyclobutyl-1-(4-(pyridin-4-yl)phenyl)vinyl)phenyl)acrylic acid]	++ (++ = a single % value ≧ 40%)
≥ 40%	≤ 100 nM	≤ 100 nM	O=C(O)/C=C/c1ccc(/C(=C(\c2ccc(F)cc2Cl)C2CCC2)c2ccc(-c3cnn(CCO)c3)cc2)cc1 [Example 69, (E)-3-(4-((E)-2-(2-Chloro-4-fluorophenyl)-2-cyclobutyl-1-(4-(1-(2-hydroxyethyl)-1H-pyrazol-4-yl)phenyl)vinyl)phenyl)acrylic acid]	++ (++ = a single % value ≧ 40%)
≥ 40%	≤ 100 nM	> 100 nM	O=C(O)/C=C/c1ccc(/C(=C(\c2ncccc2F)C2CCC2)c2ccc(-c3cn[nH]c3)cc2)cc1 [Example 41, (E)-3-(4-((E)-1-(4-(1H-Pyrazol-4-yl)phenyl)-2-cyclobutyl-2-(3-fluoropyridin-2-yl)vinyl)phenyl)acrylic acid]	++ (++ = a single % value ≧ 40%)
